Results from paper PMC3669377, “Purification, Cloning, Characterization and Essential Amino Acid Residues Analysis of a New ι-Carrageenase from Cellulophaga sp. QY3” (PLoS ONE, 2013).

Target: T1, CgiA_Ce (Cellulophaga sp. QY3, UniProt M1EU02)
T1 construct: gene cgiA; native secreted enzyme purified from culture supernatant; mature, putative signal peptide M1-S41 removed (precursor 492 residues); monomer
T1 sequence (M1EU02 42-492): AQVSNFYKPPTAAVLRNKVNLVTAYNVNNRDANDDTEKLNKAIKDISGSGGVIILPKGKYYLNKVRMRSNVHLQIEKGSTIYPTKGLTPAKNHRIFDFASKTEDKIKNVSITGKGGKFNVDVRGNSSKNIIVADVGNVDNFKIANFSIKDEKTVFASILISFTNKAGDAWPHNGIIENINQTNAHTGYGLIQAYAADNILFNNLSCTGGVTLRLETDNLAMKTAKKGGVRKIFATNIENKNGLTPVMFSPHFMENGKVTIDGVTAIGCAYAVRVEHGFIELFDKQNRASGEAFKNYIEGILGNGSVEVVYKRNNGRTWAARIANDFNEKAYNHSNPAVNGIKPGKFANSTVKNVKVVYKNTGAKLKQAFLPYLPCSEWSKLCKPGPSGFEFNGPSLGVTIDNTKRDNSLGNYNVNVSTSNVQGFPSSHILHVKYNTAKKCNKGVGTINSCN
Experiment: FACE analysis of hydrolysis products
Format: biochemical
Details: pH 7.0, 45°C; 10 mg/ml substrate; minimum substrate; products neo-iota-carrabiose and neo-iota-carratetraose

## O=S(=O)(O)O[C@@H]1[C@H](O[C@H]2O[C@@H]3CO[C@@H]([C@H]3O[C@@H]3O[C@H](CO)[C@H](OS(=O)(=O)O)[C@H](O[C@H]4O[C@@H]5CO[C@@H]([C@H]5O)[C@H]4OS(=O)(=O)O)[C@H]3O)[C@H]2OS(=O)(=O)O)[C@@H](O)[C@H](O[C@@H]2[C@@H]3OC[C@H]2O[C@H](O[C@H]2[C@@H](OS(=O)(=O)O)[C@@H](CO)OC(O)[C@@H]2O)[C@@H]3OS(=O)(=O)O)O[C@@H]1CO (stereo partly shown) [DP6, neo-ι-carrahexaose]
  FACE analysis of hydrolysis products: Neo-ι-carrahexaose was the shortest chain that can be recognized and cleaved by CgiA_Ce
